Measurements taken from patent publication US20250257095A1, “METHOD FOR VISIBLE LIGHT-MEDIATED CHEMICAL MODIFICATION OF POLYPEPTIDE AND PROTEIN BASED ON CYSTEINE” (SHANGHAI JIAO TONG UNIVERSITY, priority 2022, published 2025).

Experiment: Plasma stability test (incubation in plasma at 37° C., LC-MS/MS)
Format: in vitro ADME
Conditions: 2 h later; for metabolised at 2 h, 5 μg/mL: read-out: compound degraded in plasma
Method: About 3 μL of a 500 μg/mL compound was taken and added to 297 μL of plasma. Incubation was conducted at 37° C. for 0 h to 3 h. 20 μL of a sample was collected at 1 min, 10 min, 30 min, 60 min, and 120 min. Then 100 μL of acetonitrile was added to precipitate proteins. Then 1 μL of a sample was collected and tested by liquid chromatography-tandem triple quadrupole mass spectrometer (LC-MS/MS) to determine a downward response of the compound in the plasma. The stability of the compound in the plasma could be quantified through plotting.

compound degraded in plasma	metabolised at 2 h, 5 μg/mL [%]	Structure (SMILES)
not observed		COC(=O)[C@H](CCC(=O)c1ccccc1)NC(=O)[C@H](Cc1ccccc1)NC(=O)OC(C)(C)C [DP-04]
not observed		COC(=O)[C@H](CCC(=O)c1ccccc1)NC(=O)[C@H](CCCCNC(=O)OC(C)(C)C)NC(=O)OCc1ccccc1 [DP-11]
	~1.5	CCN1C(=O)CC(SC[C@@H](NC(=O)[C@@H](CCCCNC(=O)OC(C)(C)C)NC(=O)OCc2ccccc2)C(=O)O)C1=O (stereo partly shown) [compound 2]
	~14	CCN1C(=O)CC(SC[C@@H](NC(=O)[C@@H](Cc2ccccc2)NC(=O)OC(C)(C)C)C(=O)O)C1=O (stereo partly shown) [compound 1]
